Assay results taken from patent publication US4808605A, “Tetrahydronaphthalene derivatives as calcium antagonists” (Hoffmann-La Roche Inc., priority 1986, dated 1989).

Tests used:
[1] = tested on: Isolated, perfused guinea pig heart; experiment: Isolated, perfused guinea pig heart according to Langendorff (Test B); settings: Cavia porcellus, infusion, 10^-10 to 10^-6 M, pH 7.3, 37° C., read-out: CBF IC50
Protocol: B. Isolated, perfused guinea pig heart according to Langendorff: Guinea pigs weighing approximately 400 g are narcotized with Urethan (1 g/kg i.p.) and the heart is removed rapidly. […] A Miller microtip catheter pressure transducer (PC-350) is inserted in the left heart chamber in order to measure the left ventricular pressure. The total coronary artery flow is collected in a funnel and measured with an electro magnetic flow meter. All measurement parameters are recorded on a recording apparatus (Gould, Model 2800). The test begins after an adaptation of 45 minutes. Substances are infused with a velocity of 1% of the total coronary flow rate. A complete concentration-activity curve (10^-10 to 10^-6 M) is prepared for each substance.

[2] = molecular target: T1, ^3 H-desmethoxyverapamil binding, partially-cleaned membranes of guinea pig heart (Cavia porcellus, UniProt O35505); experiment: ^3 H-Desmethoxyverapamil binding determinations (Test A); settings: half-maximum inhibition of specific ^3 H-desmethoxyverapamil binding; 2.5 nM; 120 minutes at 37° C.
T1 construct: partially-cleaned membranes of guinea pig heart; from tissue; host or cells: guinea pig heart, partially-cleaned membranes
Protocol: A. ^3 H-Desmethoxyverapamil binding determinations:
The determination is carried out on partially-cleaned membranes of guinea pig heart. […] The incubation lasts 120 minutes at 37° C. and is stopped by dilution with the incubation buffer; a filtration is subsequently carried out. The filter-bound radioactivity is measured with a scintillation counter. Specific binding (i.e. receptor-bound) is defined as the difference between total and unspecific-bound radioactivity. The unspecific binding is determined in the presence of an excess of non-radioactive verapamil (10 μM).
The activity (potency) of a compound in this test is defined by the IC50 value. The IC50 is the substance concentration (in mol/l) which produces a half-maximum inhibition of the specific ^3 H-desmethoxyverapamil binding. This value is extrapolated from a concentration-binding curve.

narcotized dog = experiment: Haemodynamic parameters in the narcotized dog (Test C); type: in vivo; settings: % maximum variation from initial value; for BP Δ %: blood pressure; for CBF Δ %: coronary blood flow; for HR Δ %: heart rate; for dp/dt Δ %: rate of increase in left ventricular pressure
Protocol: C. […] The values are given as the % maximum variation from the initial value (Δ %) and the duration of this variation (t) per dosage administered. There is thus obtained not only an overall picture of the activity of the substance, but also an estimation as to the potential selectivity for a specific part of the circulatory system in the entire organism. After the administration of an anaesthetic, the dog is intubated and respired artificially. Blood pH, pC2 O , pO2 and haemoglobin are measured hourly with a blood-gas analyser. The blood pressure (systolic and diastolic) is measured with a probe in the aorta abdominalis. The heart freguency is recorded by means of a tachometer, which is disengaged from the pressure pulse. For the other measurements the heart must be firstly be opened in order that a probe can be inserted in the left ventricle (heart chamber) for the pressure measurements (dp/dt). The coronary blood flow is measured with a flowing probe in the left coronary artery (descendens).

T1 sequence (O35505 whole entry): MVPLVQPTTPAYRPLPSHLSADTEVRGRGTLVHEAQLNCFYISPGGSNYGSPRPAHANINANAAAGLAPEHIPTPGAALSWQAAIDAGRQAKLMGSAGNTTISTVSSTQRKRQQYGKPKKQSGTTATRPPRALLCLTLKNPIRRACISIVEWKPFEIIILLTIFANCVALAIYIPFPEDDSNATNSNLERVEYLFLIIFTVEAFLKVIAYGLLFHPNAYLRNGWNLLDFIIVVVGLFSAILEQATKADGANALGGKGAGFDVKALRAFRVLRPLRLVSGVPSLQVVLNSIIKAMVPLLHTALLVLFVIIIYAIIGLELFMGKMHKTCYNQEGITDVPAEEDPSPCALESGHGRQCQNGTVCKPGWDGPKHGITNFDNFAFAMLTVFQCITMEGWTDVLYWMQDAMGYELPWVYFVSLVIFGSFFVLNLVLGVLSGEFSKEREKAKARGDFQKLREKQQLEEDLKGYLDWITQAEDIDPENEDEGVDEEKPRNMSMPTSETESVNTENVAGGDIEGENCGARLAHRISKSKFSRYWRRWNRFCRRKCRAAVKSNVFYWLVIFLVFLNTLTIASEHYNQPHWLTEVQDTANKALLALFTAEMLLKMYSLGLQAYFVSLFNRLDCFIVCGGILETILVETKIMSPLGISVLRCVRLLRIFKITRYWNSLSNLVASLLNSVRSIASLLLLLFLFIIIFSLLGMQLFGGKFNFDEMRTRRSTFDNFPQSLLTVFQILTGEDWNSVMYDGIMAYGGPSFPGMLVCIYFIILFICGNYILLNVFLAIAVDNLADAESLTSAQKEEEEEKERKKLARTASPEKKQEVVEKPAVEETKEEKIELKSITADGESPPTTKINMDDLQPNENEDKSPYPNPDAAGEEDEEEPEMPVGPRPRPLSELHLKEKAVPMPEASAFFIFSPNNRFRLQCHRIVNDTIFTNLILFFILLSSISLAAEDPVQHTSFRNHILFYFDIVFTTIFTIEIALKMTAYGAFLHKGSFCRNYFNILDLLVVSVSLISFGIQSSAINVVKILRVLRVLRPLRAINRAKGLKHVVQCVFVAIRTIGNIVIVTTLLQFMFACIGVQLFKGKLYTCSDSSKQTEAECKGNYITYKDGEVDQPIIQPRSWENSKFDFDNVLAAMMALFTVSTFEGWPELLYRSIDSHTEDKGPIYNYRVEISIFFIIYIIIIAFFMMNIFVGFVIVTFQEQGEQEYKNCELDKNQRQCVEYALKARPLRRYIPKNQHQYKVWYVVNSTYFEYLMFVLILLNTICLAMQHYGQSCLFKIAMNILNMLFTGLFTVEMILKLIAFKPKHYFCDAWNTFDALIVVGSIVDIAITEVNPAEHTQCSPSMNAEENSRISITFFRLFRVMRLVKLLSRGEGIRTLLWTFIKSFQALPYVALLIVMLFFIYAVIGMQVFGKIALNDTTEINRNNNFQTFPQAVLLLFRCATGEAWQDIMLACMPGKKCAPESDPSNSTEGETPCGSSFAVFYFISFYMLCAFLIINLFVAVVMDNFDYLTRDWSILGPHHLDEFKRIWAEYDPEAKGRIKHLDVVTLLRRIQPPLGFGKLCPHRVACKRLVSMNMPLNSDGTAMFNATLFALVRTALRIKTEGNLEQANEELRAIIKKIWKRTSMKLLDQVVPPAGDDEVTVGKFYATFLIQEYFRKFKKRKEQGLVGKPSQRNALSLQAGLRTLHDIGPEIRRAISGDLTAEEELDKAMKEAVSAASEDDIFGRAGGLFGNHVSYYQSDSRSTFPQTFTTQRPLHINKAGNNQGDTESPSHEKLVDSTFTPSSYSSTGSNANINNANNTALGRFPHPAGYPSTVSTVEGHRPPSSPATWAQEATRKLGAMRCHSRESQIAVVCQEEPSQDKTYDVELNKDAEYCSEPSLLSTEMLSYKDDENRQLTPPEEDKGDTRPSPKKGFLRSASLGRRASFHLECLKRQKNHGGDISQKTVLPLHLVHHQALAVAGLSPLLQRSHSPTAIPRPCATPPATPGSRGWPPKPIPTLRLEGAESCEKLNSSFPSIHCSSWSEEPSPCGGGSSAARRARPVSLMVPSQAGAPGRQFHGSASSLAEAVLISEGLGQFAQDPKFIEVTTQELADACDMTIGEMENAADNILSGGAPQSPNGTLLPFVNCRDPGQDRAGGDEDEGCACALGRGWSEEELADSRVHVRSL

IC50 [1] | IC50 [2] | SMILES | BP Δ % (narcotized dog; 0.3 mg/kg i.v.) | CBF Δ % (narcotized dog; 0.3 mg/kg i.v.) | HR Δ % (narcotized dog; 0.3 mg/kg i.v.) | dp/dt Δ % (narcotized dog; 0.3 mg/kg i.v.) | BP Δ % (narcotized dog; 1 mg/kg i.v.) | CBF Δ % (narcotized dog; 1 mg/kg i.v.) | HR Δ % (narcotized dog; 1 mg/kg i.v.) | dp/dt Δ % (narcotized dog; 1 mg/kg i.v.) | BP Δ % (narcotized dog; 0.03 mg/kg i.v.) | CBF Δ % (narcotized dog; 0.03 mg/kg i.v.) | HR Δ % (narcotized dog; 0.03 mg/kg i.v.) | dp/dt Δ % (narcotized dog; 0.03 mg/kg i.v.)
0.028 µM | 0.034 µM | CCCCCCCCCCCCn1c(CCCCCCCN(C)CC[C@@]2(OC(=O)COC)CCc3cc(F)ccc3[C@@H]2C(C)C)nc2ccccc21 [F, [1S,2S]-2-[2-[[7-(1-dodecyl-2-benzimidazolyl)heptyl]methylamino]ethyl]-6-fluoro-1,2,3,4-tetrahydro-1-isopropyl-2-naphthyl methoxyacetate] | -3% | 46% | -2% | 4% |  |  |  |  |  |  |  | 
0.0024 µM | 0.028 µM | COCC(=O)O[C@]1(CCN(C)CCCCCc2nc3ccccc3s2)CCc2cc(F)ccc2[C@@H]1C(C)C [H, [1S,2S]-2-[2-[[5-(2-benzthiazolyl)pentyl]methylamino]ethyl]-6-fluoro-1,2,3,4-tetrahydro-1-isopropyl-2-naphthyl methoxyacetate] | -28% | 146% | -41% | 25% |  |  |  |  |  |  |  | 
10 µM | 1 µM | COCC(=O)O[C@]1(CC[N+](C)([O-])CCCc2nc3ccccc3[nH]2)CCc2cc(F)ccc2[C@@H]1C(C)C (stereo partly drawn) [E, [1S,2S]-2-[2-[[3-(2-benzimidazolyl)propyl]methyl-N-oxidoamino]ethyl]-6-fluoro-1,2,3,4-tetrahydro-1-isopropyl-2-naphthyl methoxyacetate] |  |  |  |  | -8% | 57% | 0% | 10% |  |  |  | 
0.05 µM | 0.63 µM | CC(C)[C@H]1c2ccc(F)cc2CC[C@]1(O)CCN(C)CCCCCCCc1nc2ccccc2[nH]1 [B, [1S,2S]-2-[2-[[7-(2-benzimidazolyl)heptyl]methylamino]ethyl]-6-fluoro-1,2,3,4-tetrahydro-1-isopropyl-2-naphthalenol] | -6% | 36% | 0% | 8% |  |  |  |  |  |  |  | 
0.0011 µM | 0.032 µM | COCC(=O)O[C@]1(CCN(C)CCCCCCn2c(=O)[nH]c3ccccc32)CCc2cc(F)ccc2[C@@H]1C(C)C [D, [1S,2S]-6-fluoro-1,2,3,4-tetrahydro-1-isopropyl-2-[2-[methyl-[6-(2-oxo-1-benzimidazolinyl)hexyl]amino]ethyl]-2-naphthyl methoxyacetate] |  |  |  |  |  |  |  |  | -21% | 22% | -25% | 6%
0.017 µM | 0.21 µM | CCCCNC(=O)O[C@]1(CCN(C)CCCCCc2nc3ccccc3n2C)CCc2cc(F)ccc2[C@@H]1C(C)C [C, [1S,2S]-6-fluoro-1,2,3,4-tetrahydro-1-isopropyl-2-[2-[methyl-[5-(1-methyl-2-benzimidazolyl)pentyl]amino]ethyl]-2-naphthyl butylcarbamate] | -16% | 62% | -9% | 15% |  |  |  |  |  |  |  | 
0.0018 µM | 0.15 µM | COCC(=O)O[C@]1(CCN(C)CCCc2nc(-c3ccccc3)c(-c3ccccc3)n2C)CCc2cc(F)ccc2[C@@H]1C(C)C [G, [1S,2S]-6-fluoro-1,2,3,4-tetrahydro-1-isopropyl-2-[2-[[3-(1-methyl-4,5-diphenylimidazol-2-yl)propyl]methylamino]ethyl]-2-naphthyl methoxyacetate] | -20% | 96% | -15% | 11% |  |  |  |  |  |  |  | 
0.022 µM | 0.1 µM | COCC(=O)O[C@]1(CCN(C)Cc2ccc(Cc3nc4ccccc4[nH]3)cc2)CCc2cc(F)ccc2[C@@H]1C(C)C [I, [1S,2S]-6-fluoro-1,2,3,4-tetrahydro-1-isopropyl-2-[2-[[4-[(2-benzimidazolyl)methyl]benzyl]methylamino]ethyl]-2-naphthyl methoxyacetate] | -14% | 82% | -9% | 18% |  |  |  |  |  |  |  | 

SMILES | IC50 [1] | IC50 [2] | BP Δ % (narcotized dog; 0.3 mg/kg i.v.) | CBF Δ % (narcotized dog; 0.3 mg/kg i.v.) | HR Δ % (narcotized dog; 0.3 mg/kg i.v.) | dp/dt Δ % (narcotized dog; 0.3 mg/kg i.v.) | BP Δ % (narcotized dog; 1 mg/kg i.v.) | CBF Δ % (narcotized dog; 1 mg/kg i.v.) | HR Δ % (narcotized dog; 1 mg/kg i.v.) | dp/dt Δ % (narcotized dog; 1 mg/kg i.v.) | BP Δ % (narcotized dog; 0.03 mg/kg i.v.) | CBF Δ % (narcotized dog; 0.03 mg/kg i.v.) | HR Δ % (narcotized dog; 0.03 mg/kg i.v.) | dp/dt Δ % (narcotized dog; 0.03 mg/kg i.v.)
COCC(=O)O[C@]1(CCN(C)CCCc2nc3ccccc3[nH]2)CCc2cc(F)ccc2[C@@H]1C(C)C [A, [1S,2S]-2-[2-[[3-(2-benzimidazolyl)propyl]methylamino]ethyl]-6-fluoro-1,2,3,4-tetrahydro-1-isopropyl-2-naphthyl methoxyacetate] | 0.047 µM | 0.13 µM | -22% | 86% | -7% | 25% |  |  |  |  |  |  |  | 
